Measured values published in patent publication US20070078262A1, “Thiomorpholino steroid compounds, the use thereof for the preparation of meiosis-regulating medicaments and method for the preparation thereof” (SCHERING AKTIENGESELLSCHAFT, priority 2003, published 2007).
Several values for one entry are separate records, joined by “and”; a condition that tells them apart may be missing. Equal values may be shown once.

What was measured:
[1] = tested on: Cumulus Enclosed Oocytes (CEOs); experiment: Cumulus enclosed oocyte assay (meiosis activation in Hx-medium); type: cell-based, mice (C57BL/6J×DBA/2J F1); details: for Meiosis Activation [%]: in the presence of Hx in CEOs
Source text: Activation of MI arrested oocytes can be assessed by the disappearance of the germinal vesicle (GV). The disappearance of the GV, called germinal vesicle breakdown (GVB) is followed by the extrusion of the first polar body (PB) (C. Grøndahl, J. L. Ottesen, M. Lessi, P. Faarup, A. Murray, F C Grønvald, C. Hegele-Hartung, I. Ahnfelt-Rønne, “Meiosis-activating sterol promotes resumption of meiosis in mouse oocytes cultured in vitro in contrast to related oxysterols”, Biol. Reprod., 58, 1297-1302 (1998); C. Hegele-Hartung, J. Kuhnke, M. Lessi, C. Grøndahl, J. Ottesen, H. M. Beier, S. Eisner, U. Eichenlaub-Ritter, “Nuclear and cytoplasmic maturation of mouse oocytes after treatment with synthetic meiosis-activating sterol in vitro”, Biol. Reprod., 61, 1362-1372 (1999)).
Cumulus Enclosed Oocytes (CEOs) were obtained from immature female mice (C57BL/6J×DBA/2J F1) weighing 13-16 grams, that were kept under controlled temperature (20-22° C.), light (lights on 06:00-18:00) and relative humidity (50-70%). The mice received an intra-peritoneal injection of 0.2 ml gonadotropins containing 20 IU FSH. 48 hours later the animals were killed by cervical dislocation. The ovaries were dissected out and the oocytes were isolated in Hx-medium (see below) under a stereomicroscope by manual rupture of the follicles using a pair of 27-gauge needles. Cumulus enclosed oocytes displaying an intact germinal vesicle were placed in α-minimum essential medium (α-MEM without ribonucleosides supplemented with 8 mg/ml Human Serum Albumin (HSA), 0.23 mM pyruvate, 2 mM glutamine, 100 IU/ml penicillin and 100 μg/ml streptomycin). To maintain the oocytes in the germinal vesicle stage this medium was supplemented with 3 mM hypoxanthine, designated as Hx-medium.
The CEOs (35-45 CEOs in 0.4 ml Hx-medium) were cultured in a humidified atmosphere of 5% CO2 in air for 24 hours at 37° C. One control well (identical medium with no addition of test compound) was always cultured simultaneously with test wells.
By the end of the culture period the number of CEOs with germical vesicle (GV), germinal vesicle breakdown (GVB) and polar bodies (PB), respectively, were counted. The % GVB, defined as the percentage of CEOs undergoing GVB per total number of CEOs in that well, was calculated as: % GVB=(number of GVB+number of PB/total number of CEOs)×100
The % PB was defined as the percentage of CEOs displaying one extruded polar body per total number of CEOs in that well.
For each compound two experiments were performed and the results compared to Hx-medium as a control and FF-MAS at a concentration of 10 μM.

[2] = tested on: mouse oocytes; experiment: In vitro fertilization (IVF) after in vitro maturation of oocytes; type: cell-based, mice (C57BL/6J×DBA/2J F1); details: in vitro maturation without hypoxanthine, then IVF; n=18
Experimental: Changes in the subsequent IVF are therefore probably due to effects of the test compounds on cytoplasmic maturation.
Immature female mice (C57BL/6J×DBA/2J F1) in the age of 21-24 days were used as oocyte donors. Animals were given an i.p. injection of 10 IU pregnant mare serum gonadotropin (PMSG) to induce follicular growth. Animals were killed by cervical dislocation 48 hours later and the ovaries were dissected out. As sperm donors eight week old male mice (C57BL/6J×DBA/2J F1) were used.
Oocytes were isolated from the ovaries by manual rupture of the follicles using a pair of 27-gauge needles. Spherical naked oocytes (NkO) and CEOs displaying an intact GV were selected and placed in α-minimum essential medium (α-MEM without ribonucleosides, Gibco BRL, Gaithersburg; Cat. No. 22561) supplemented with 8 mg/ml human serum albumin (HSA), 0.23 mM pyruvate, 2 mM glutamine, 100 IU/ml penicillin and 100 μg/ml streptomycin.
The oocytes were rinsed three times in culture medium without oil overlay in 4-well multidishes containing 0.4 ml of the respective oocyte culture medium.
The oocyte culture medium was supplemented with 6.4% Fetal Bovine Serum (FBS). Solutions of novel compound IA and of the two compounds in comparison as mentioned were prepared from a stock solution containing 1 mg/ml of compound dissolved in absolute ethanol. The control group was cultured with a corresponding amount of ethanol.
After a culture time of 18-19 hours oocytes were further processed for in vitro fertilization. […] Oocytes were briefly washed without any test compound and subsequently transferred to the insemination dishes prepared in advance, which contained approximately 600.000 capacitated sperm cells per 500 μl IVF medium (obtained from the epididymides of male mice). The dishes were then incubated under defined gas conditions (5% CO2 in air) at 37° C. in a modified α-MEM IVF medium supplemented with 8 mg/ml HSA, 0.23 mM pyruvate, 100 IU penicillin/ml and 100 μg streptomycin/ml as described above for oocyte maturation.
Examination of the oocytes was carried out 22-24 hours after insemination in order to check fertilization and to record the number of pronucleus (PN) and 2-cell stage embryos. The fertilization rate was determined as the number of oocytes that had reached the PN or 2-cell embryo stage, relative to the total number inseminated.

[3] = tested on: in vitro fertilized ova (2-cell embryos); experiment: Retransfer study / fertility trial (in vitro fertilized 2-cell embryos transferred into foster mothers); type: in vivo, mice; details: for No. of Implantation Spots: Odds / No. of Viable Fetuses: Odds: successes divided by failures; for No. of Implantation Spots: Failures: transferred ova minus implantation spots; for No. of Viable Fetuses: Failures: transferred ova minus viable fetuses; for Odds Ratio for comparison to FF-MAS, No. of Implantation Spots / Odds Ratio for comparison to FF-MAS, No. of Viable Fetuses: versus FF-MAS 10 μM; for shows significant improvement of odds versus vehicle control, number of implantation spots: 95% confidence interval of odds ratio, all doses tested
Experimental: In vitro fertilization was performed as described above for the IVF experiment.
One day before the retransfer female recipient mice (foster mothers) in pro-estrus cycle state were mated with vasectomized males in order to trigger pseudogestation. One day later a vaginal check was performed. Animals with a positive, sperm-free vaginal plug (successful mating) entered the study. This day was designated day 0 of gestation (=day 0 after the sterile copulation, day 0 p.c.). […] 2-cell embryos were transferred into the right tube of the foster mothers on day 0 after the sterile copulation under anesthesia. The contra-lateral tube remained unused (check for pseudogestation). The foster mothers were sacrified on day 19 of gestation. The fetuses were removed and examined. The ovaries and uteri were removed immediately to record the number of implantation sites, viable and dead fetuses and resorptions. Apparently non-pregnant uteri were placed in a 10% aqueous solution of ammonium sulfide for about 10 min to stain possible implantation sites in the endometrium. The viable fetuses were individually weighed and their sex determined by inspection of their gonads.
In a fertility trial 269 mice were randomized into 6 groups and implanted with 7-10 in vitro fertilized ova. The in vitro fertilization took place in the presence of vehicle (group 1) or of a substance (groups 2 to 6).
The fertility raising effect of the substances in comparison to the vehicle control was of main interest. Moreover, an improvement compared to the substance FF-MAS was also investigated.
Variables of primary interest are the number of implantation spots and the number of viable fetuses.
The data for implantation spots as well as for viable fetuses have to be considered to have binary character, i.e. it can be expressed in rates or in a number of successes and failures with respect to the number of transferred ova. Therefore, methods as outlined by D. Collett: “Modelling Binary Data”, 2nd edition, Chapman & Hall/CRC, Boca Raton, constitute appropriate approaches to the data analysis.
The odds ratio of one group as compared to the other is defined as: odds ratio (group 1, group 2)=or1,2=odds (group 1)/odds (group 2)
where the odds of a group can be estimated by the number of successes divided by the number of failures in that group.
To reach statements about the significance of any findings, 95% confidence-intervals for the odds ratios are computed as: [ exp(log(or1,2)[…]1.96·se(log(or1,2))); exp(log(or1,2)+1.96·se(log(or1,2)))]
wherein se(log(or1,2)) is the standard error of the log odds ratio (see D. Collett (2003) for the corresponding formula).
As a basis for the computation of odds ratios, the number of successes (i.e., the number of implantation spots of number of viable fetuses) and failures (i.e., the number of transferred ova minus the number of implantation spots or number of viable fetuses) are computed for all groups.

[4] = Solubility in water (measured by turbimetry)
[5] = tested on: rat oocytes (CEO and DO); details: micromolar concentrations; CEO and DO cultured in vitro; cited from earlier work
[6] = tested on: follicle culture system; experiment: Follicle culture system (induction of maturation); type: cell-based
[7] = 10 μM, Table 1, two experiments per compound, FF-MAS run in parallel

| Structure (SMILES) | Meiosis Activation [%] [1, 7] | Meiosis Activation [%] ([1]; 10 μM, Table 2) | fertilization rates of mouse oocytes compared to vehicle control (FIG. 3) [2] | No. of Implantation Spots: Success ([3]; 10 μM) | No. of Viable Fetuses: Success ([3]; 10 μM) | Odds Ratio for comparison to vehicle control, No. of Implantation Spots ([3]; 10 μM) | Odds Ratio for comparison to vehicle control, No. of Viable Fetuses ([3]; 10 μM) | No. of Implantation Spots: Odds ([3]; 10 μM) | No. of Viable Fetuses: Odds ([3]; 10 μM) | No. of Implantation Spots: Failures ([3]; 10 μM) | No. of Viable Fetuses: Failures ([3]; 10 μM) | shows significant improvement of odds versus vehicle control, number of implantation spots [3] | other results |
| --- | --- | --- | --- | --- | --- | --- | --- | --- | --- | --- | --- | --- | --- |
| C[C@H](CN1CCSCC1)[C@H]1CCC2=C3CC[C@H]4C(C)(C)[C@@H](O)CC[C@]4(C)[C@H]3CC[C@@]21C [Compound IB, (20S)-20-[(thiomorpholin-4-yl)methyl]-4,4-dimethyl-5α-pregna-8(14)-en-3β-ol] | 15% |  |  |  |  |  |  |  |  |  |  |  |  |
| C[C@H](CN1CCSCC1)[C@H]1CC=C2C3=C(CC[C@@]21C)[C@@]1(C)CC[C@H](O)C[C@@H]1CC3 [Compound IC, (20S)-20-[(thiomorpholin-4-yl)methyl]-5α-pregna-8,14-dien-3β-ol] | 64% and 69% |  |  |  |  |  |  |  |  |  |  |  |  |
| C[C@H](CN1CCSCC1)[C@H]1CC[C@H]2C3=CC=C4C(C)(C)[C@@H](O)CC[C@]4(C)[C@H]3CC[C@]12C [Compound ID, (20S)-20-[(thiomorpholin-4-yl)methyl]-4,4-dimethyl-pregna-5,7-dien-3β-ol] | 89% and 58% |  |  |  |  |  |  |  |  |  |  |  |  |
| C[C@H](CN1CCSCC1)[C@H]1CCC2=C3CC[C@H]4C[C@@H](O)CC[C@]4(C)[C@H]3CC[C@@]21C [Compound IE, (20S)20-[(thiomorpholin-4-yl)methyl]-5α-pregna-8(14)-en-3β-ol] | 96% and 80% | 60 |  |  |  |  |  |  |  |  |  |  | Meiosis Activation [%] ([1]; 1 μM, Table 2): 44%; Meiosis Activation [%] ([1]; 3 μM, Table 2): 24%; efficiency of meiosis activation among the compounds tested ([1]; CEOs in the presence of Hx): the most efficient compound tested |
| C[C@H](CN1CCCCC1)[C@H]1CC=C2C3=C(CC[C@@]21C)[C@@]1(C)CC[C@H](O)C(C)(C)[C@@H]1CC3 [Compound No. 2, (20S)-20-[(piperidin-1-yl)methyl]-4,4-dimethyl-5α-pregna-8,14-dien-3β-ol] |  | 48 | higher fertilization rates | 90 | 37 | 1.08 | 1.24 | 0.27 | 0.10 | 332 | 385 | Neither | No. of Implantation Spots: Success ([3]; 1 μM): 97; No. of Viable Fetuses: Success ([3]; 1 μM): 32; Odds Ratio for comparison to vehicle control, No. of Implantation Spots ([3]; 1 μM): 1.09; Odds Ratio for comparison to vehicle control, No. of Viable Fetuses ([3]; 1 μM): 0.98; No. of Implantation Spots: Odds ([3]; 1 μM): 0.27; No. of Viable Fetuses: Odds ([3]; 1 μM): 0.08; No. of Implantation Spots: Failures ([3]; 1 μM): 357; No. of Viable Fetuses: Failures ([3]; 1 μM): 422; Odds Ratio for comparison to FF-MAS, No. of Implantation Spots ([3]; 1 μM): 0.91; Odds Ratio for comparison to FF-MAS, No. of Viable Fetuses ([3]; 1 μM): 0.66; Odds Ratio for comparison to FF-MAS, No. of Implantation Spots ([3]; 10 μM): 0.91; Odds Ratio for comparison to FF-MAS, No. of Viable Fetuses ([3]; 10 μM): 0.83 |
| CC(C)=CCC[C@@H](C)[C@H]1CC=C2C3=C(CC[C@@]21C)[C@@]1(C)CC[C@H](O)C(C)(C)[C@@H]1CC3 [FF-MAS, 4,4-dimethyl-5α-cholesta-8,14,24-trien-3β-ol] |  | 24 | higher fertilization rates | 100 | 45 | 1.19 | 1.49 | 0.30 | 0.12 | 335 | 390 | Neither | solubility [4]: < 0.1 µg/mL; resumption of meiosis in rat oocytes arrested by IBMX [5]: able to induce resumption of meiosis in a dose-dependent manner; implantation rate per transferred 2-cell embryos (FIG. 4) ([3]; FF-MAS 10 μM, compound IA 1 μM and 10 μM): higher numbers; induction of maturation / activation of meiosis in a follicle culture system [6]: not able to induce maturation |
